In article PMC10761937, “Functional engineering of human iPSC‐derived parasympathetic neurons enhances responsiveness to gastrointestinal hormones” (FEBS Open Bio, 2023):

Columns and labels:
NPY2R‐neurons = assay: MEA recording of neuronal firing, NPY2R‐neurons; assay type: cell-based, human; details: PYY, 10 nM or 100 nM (both printed in Fig. 6 legend); day 27; 0 nM n = 8 electrodes, 100 nM n = 6 electrodes; Fig. 6F
Description: (§1) Before initiating differentiation, the iPSCs (1–2 × 10^5 cells·cm^−2; Cell lines and cell culture section) were transferred to 6‐well plates (Corning, Inc., Corning, NY, USA) coated with 2‐methacryloyloxyethyl phosphorylcholine (MPC) polymer (Lipidure CM5206E; NOF, Tokyo, Japan). The cells were maintained in mTeSR1 cGMP medium containing 10 μM Y‐27632 (Fujifilm Wako Pure Chemical Industries) for 2 or 3 days to form embryoid body (EBs) in a rotary shaker at 95 r.p.m. (OS‐762RC; Optime, Tokyo, Japan). Subsequently, iPSCs were differentiated into neural crest cells (NCCs), as previously reported. Briefly, NCCs were induced from Ebs using knockout serum replacement (KSR) medium and N2 medium with graded addition of nerve growth factors and signaling factors. KSR medium was composed of DMEM‐F12 (Fujifilm Wako Pure Chemical Industries), 20% KSR (Thermo Fisher Scientific), 1% NEAA, 1% monothioglycerol (Fujifilm Wako Pure Chemical Industries), and 1% P/S. N2 medium consisted of DMEM‐F12, 1% N2 supplement (Fujifilm Wako Pure Chemical Industries), 1% NEAA, and 1% P/S. When EB formation was considered day 0 of induction, the medium was changed at days 2, 5, 7, 9, and 12. […]

GLP1R‐neurons = assay: Ca^2+ imaging, GLP1R‐neurons (iPSC‐derived); assay type: cell-based, human; details: 10 nM GLP1 (GLP1 (7–37) in method), day 35, Fluo‐8 AM
Description: as §1

| Substance | Firing frequency (NPY2R‐neurons) | Intracellular Ca^2+ concentration of selected GLP1R‐neurons (traces) (GLP1R‐neurons; Fig. S5B) | Ratio of change (ΔF stim/F 0) in mean fluorescence intensity before and after ligand addition (GLP1R‐neurons; n = 10, Student's t‐test vs. 0 nM, Fig. 6C) |
| --- | --- | --- | --- |
| PYY: PYY (4400‐v; Peptide Institute, Inc.); PYY (3–36) in Ca2+ imaging | significantly increased fluorescence intensity and firing frequency | – | – |
| GLP1: GLP1 (4280‐v; Peptide Institute, Inc.); GLP1 (7–37) in Ca2+ imaging (HAEGTFTSDVSSYLEGQAAKEFIAWLVKGRG; Glucagon-like peptide 1(7-37); UniProt P01275 98-128, looked up) | – | increased the intracellular Ca^2+ concentration | significantly increased |
